Assay results published in PubChem BioAssay (NCI).
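All cell lines were grown in 96-well plates and treated with compound for 48 hours. Abbreviation: GI50, concentration required for 50% inhibition of growth. TGI denotes the concentration required for complete inhibition of growth.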

Columns and labels:
Experiment in all cases: inhibition of tumour cell growth, NCI panel, 48 h
[1] = test system: K-562 leukemia
[2] = test system: T-47D breast
[3] = test system: CCRF-CEM leukemia
[4] = test system: SK-MEL-2 melanoma
[5] = test system: NCI-H460 lung
[6] = test system: MCF7 breast
[7] = test system: MDA-MB-231 breast
[8] = test system: IGROV1 ovarian
[9] = test system: OVCAR-5 ovarian
[10] = test system: OVCAR-8 ovarian
[11] = test system: SF-295 CNS
[12] = test system: NCI/ADR-RES ovarian
[13] = test system: SK-MEL-5 melanoma
[14] = test system: NCI-H226 lung
[15] = test system: SN12C renal
[16] = test system: RPMI-8226 leukemia
[17] = test system: LOX IMVI melanoma
[18] = test system: 786-0 renal
[19] = test system: HCC-2998 colon
[20] = test system: SR leukemia
[21] = test system: HT29 colon
[22] = test system: HCT-116 colon
[23] = test system: KM12 colon
[24] = test system: SK-MEL-28 melanoma
[25] = test system: BT-549 breast
[26] = test system: A498 renal
[27] = test system: MOLT-4 leukemia
[28] = test system: HL-60(TB) leukemia
[29] = test system: MDA-MB-435
[30] = test system: M14 melanoma
[31] = test system: PC-3 prostate
[32] = test system: DU-145 prostate
[33] = test system: SNB-19 CNS
[34] = test system: RXF 393 renal
[35] = test system: CAKI-1 renal
[36] = test system: SF-268 CNS
[37] = test system: U251 CNS
[38] = test system: COLO 205 colon
[39] = test system: ACHN renal
[40] = test system: SNB-75 CNS
[41] = test system: HCT-15 colon
[42] = test system: UACC-62 melanoma
[43] = test system: MALME-3M melanoma
[44] = test system: OVCAR-3 ovarian
[45] = test system: NCI-H23 lung
[46] = test system: UO-31 renal
[47] = test system: OVCAR-4 ovarian
[48] = test system: HOP-92 NSCLC
[49] = test system: NCI-H522 lung
[50] = test system: HS 578T breast
[51] = test system: A549 NSCLC
[52] = test system: HOP-62 NSCLC
[53] = test system: EKVX NSCLC
[54] = test system: SF-539 CNS
[55] = test system: UACC-257 melanoma
[56] = test system: SW-620 colon
[57] = test system: SK-OV-3 ovarian
[58] = test system: TK-10 renal
[59] = test system: MDA-N

**Q.** What does the source list for `N#CSc1c[nH]c2cccc(/C=C/C(=O)/C=C(/C=C/c3cccc4[nH]cc(SC#N)c34)OB(F)F)c12`?
**A.** GI50 [1]: 297 nM; TGI [1]: 1380 nM; GI50 [2]: 358 nM; TGI [2]: 6200 nM; GI50 [3]: 315 nM; TGI [3]: 17600 nM; GI50 [4]: 2400 nM; TGI [4]: 5900 nM; GI50 [5]: 1120 nM; TGI [5]: 6130 nM; GI50 [6]: 459 nM; TGI [6]: 3630 nM; GI50 [7]: 442 nM; TGI [7]: 1570 nM; GI50 [8]: 448 nM; TGI [8]: 4360 nM; GI50 [9]: 1810 nM; TGI [9]: 6910 nM; GI50 [10]: 355 nM; TGI [10]: > 59500 nM; GI50 [11]: 2680 nM; TGI [11]: 9160 nM; GI50 [12]: 4300 nM; TGI [12]: > 100000 nM; GI50 [13]: 1230 nM; TGI [13]: 2920 nM; GI50 [14]: 2210 nM; TGI [14]: 5900 nM; GI50 [15]: 495 nM; TGI [15]: 3720 nM; GI50 [16]: 351 nM; TGI [16]: 30000 nM; GI50 [17]: 243 nM; TGI [17]: 677 nM; GI50 [18]: 344 nM; TGI [18]: 2060 nM; GI50 [19]: 2590 nM; TGI [19]: 6890 nM; GI50 [20]: 345 nM; TGI [20]: > 100000 nM; GI50 [21]: 386 nM; TGI [21]: 2260 nM; GI50 [22]: 244 nM; TGI [22]: 742 nM; GI50 [23]: 1040 nM; TGI [23]: 3980 nM; GI50 [24]: 342 nM; TGI [24]: 1490 nM; GI50 [25]: 1260 nM; TGI [25]: 3860 nM; GI50 [26]: 2010 nM; TGI [26]: 6970 nM; GI50 [27]: 302 nM; TGI [27]: 3140 nM; GI50 [28]: 293 nM; TGI [28]: 5250 nM; GI50 [29]: 270 nM; TGI [29]: 869 nM; GI50 [30]: 558 nM; TGI [30]: 3080 nM; GI50 [31]: 419 nM; TGI [31]: 4190 nM; GI50 [32]: 1100 nM; TGI [32]: 2630 nM; GI50 [33]: 2330 nM; TGI [33]: 14700 nM; GI50 [34]: 226 nM; TGI [34]: 516 nM; GI50 [35]: 887 nM; TGI [35]: 8620 nM; GI50 [36]: 1070 nM; TGI [36]: 6440 nM; GI50 [37]: 366 nM; TGI [37]: 4250 nM; GI50 [38]: 293 nM; TGI [38]: 856 nM; GI50 [39]: 389 nM; TGI [39]: 1720 nM; GI50 [40]: 2180 nM; TGI [40]: 7550 nM; GI50 [41]: 315 nM; TGI [41]: 1490 nM; GI50 [42]: 628 nM; TGI [42]: 2560 nM; GI50 [43]: 272 nM; TGI [43]: 824 nM; GI50 [44]: 243 nM; TGI [44]: 586 nM; GI50 [45]: 755 nM; TGI [45]: 3290 nM; GI50 [46]: 391 nM; TGI [46]: 1550 nM; GI50 [47]: 338 nM; TGI [47]: 3950 nM; GI50 [48]: 309 nM; TGI [48]: 1450 nM; GI50 [49]: 207 nM; TGI [49]: 501 nM; GI50 [50]: 2170 nM; TGI [50]: > 58600 nM; GI50 [51]: 991 nM; TGI [51]: 10200 nM; GI50 [52]: 3160 nM; TGI [52]: 17100 nM; GI50 [53]: 916 nM; TGI [53]: 5810 nM; GI50 [54]: 1180 nM; TGI [54]: 4270 nM; GI50 [55]: 1980 nM; TGI [55]: 10900 nM; GI50 [56]: 351 nM; TGI [56]: 1330 nM; GI50 [57]: 9740 nM; TGI [57]: 41500 nM; GI50 [58]: 961 nM; TGI [58]: 5940 nM

**Q.** What does the source list for `CN1C(=O)C2(Cc3cn(C45CC67SSC(CO)(C(=O)N6C4Nc4ccccc45)N(C)C7=O)c4ccccc34)SSC1(CO)C(=O)N2C` (stereo unspecified)?
**A.** TGI [1]: > 100000 nM; TGI [59]: 66.1 nM; TGI [3]: > 100000 nM; TGI [4]: 288 nM; TGI [5]: 778 nM; TGI [6]: 259 nM; TGI [7]: 49.4 nM; TGI [8]: 107 nM; TGI [9]: 289 nM; TGI [10]: 202 nM; TGI [11]: 1340 nM; TGI [15]: 69.6 nM; TGI [16]: > 100000 nM; TGI [18]: 28.3 nM; TGI [19]: 136 nM; TGI [21]: 16.4 nM; TGI [22]: 115 nM; TGI [23]: 577 nM; TGI [24]: 505 nM; TGI [27]: 1080 nM; TGI [28]: > 100000 nM; TGI [30]: 29.8 nM; TGI [31]: 214 nM; TGI [32]: 173 nM; TGI [36]: 265 nM; TGI [39]: 77.6 nM; TGI [40]: 345 nM; TGI [42]: 324 nM; TGI [44]: 215 nM; TGI [46]: 179 nM; TGI [47]: 23.4 nM; TGI [48]: 771 nM; TGI [49]: 13.7 nM; TGI [52]: 277 nM; TGI [53]: 166 nM; TGI [54]: 73.8 nM; TGI [55]: 1130 nM; TGI [56]: > 100000 nM; TGI [57]: 1560 nM; TGI [58]: 103 nM
